Measured values published in patent publication US20260226073A1 (AURIGENE ONCOLOGY LIMITED, priority 2023, published 2026).

What was measured:
[1] = test system: NFAT signaling pathway in Jurkat NFAT reporter cells; experiment: Jurkat NFAT reporter assay; assay type: cell-based; conditions: Homo sapiens, 30 min with compound, then soluble anti-human CD3/CD28 antibody for 6 hours, luciferase readout, read-out: EC50 (Group)
Procedure: A human T lymphocyte Jurkat reporter cell line was further used to assess activation of the nuclear factor of activated T-cells (NFAT) signaling pathway by Cbl-b inhibitors. The reporter cell line is a genetically engineered Jurkat T cell line that expresses a luciferase reporter driven by an NFAT-response element (NFAT-RE). The Cbl-b inhibitor was incubated with 1×10^5 Jurkat NFAT reporter cells per well for 30 minutes. Subsequently, cells were stimulated with soluble anti-human CD3/CD28 antibody for 6 hours resulting in NFAT-RE-mediated luminescence. The bioluminescent signal is detected and quantified using Bio-Glo™ Luciferase Assay System. Readouts were reported as fold change over baseline. Here, baseline was the measurement obtained from Jurkat NFAT reporter cells stimulated with anti-CD3 antibody and anti-CD28 antibody, where the cells were not incubated with a Cbl-b inhibitor.

[2] = biological target: T1, human recombinant CBL-b (human Biotin CBL-b recombinant protein a.a. 39-426) (Homo sapiens, UniProt Q13191); experiment: Biochemical assay for CBL-b inhibition (ligand displacement TR-FRET); assay type: binding; conditions: 50 nM CBL-b, 0.3 μM Bodipy FL-Probe, read-out: IC50 (CBL-b inhibition, group)
T1 construct: human Biotin CBL-b recombinant protein a.a; 39-426; Biotin (biotinylated); made in house
T1 sequence (Q13191 39-426): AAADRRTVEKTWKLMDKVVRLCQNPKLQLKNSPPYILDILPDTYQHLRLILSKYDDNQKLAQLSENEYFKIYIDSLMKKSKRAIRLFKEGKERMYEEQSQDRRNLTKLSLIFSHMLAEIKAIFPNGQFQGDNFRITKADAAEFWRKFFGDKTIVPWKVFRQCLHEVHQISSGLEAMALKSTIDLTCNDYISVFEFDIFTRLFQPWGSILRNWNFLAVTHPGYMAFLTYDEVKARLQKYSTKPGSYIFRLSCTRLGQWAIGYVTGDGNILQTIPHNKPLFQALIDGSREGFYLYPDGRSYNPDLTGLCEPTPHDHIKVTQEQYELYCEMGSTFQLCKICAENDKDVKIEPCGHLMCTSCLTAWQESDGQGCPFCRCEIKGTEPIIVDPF
In short: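 Ligand-displacement TR-FRET: 0.3 μM Bodipy FL probe competes with compound for 50 nM biotin-CBL-b (aa 39-426) after a 60 min RT compound pre-incubation; terbium-streptavidin detection, 60 min each step. Dose-response sigmoidal fitting gave IC50 and % maximum inhibition.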

SMILES	EC50 [1] [nM]	IC50 [2] [nM]
C[C@@H]1C[C@H](C)CN(Cc2cc(N3Cc4ccc([C@@H](C)Cc5nncn5C)cc4C3=O)nc(C(F)(F)F)c2)C1 (single isomer, unassigned) [Compound 86]	< 300	< 80
C[C@@H]1C[C@H](C)CN(Cc2cc(N3Cc4ccc([C@H](C)Cc5nncn5C)cc4C3=O)nc(C(F)(F)F)c2)C1 (single isomer, unassigned) [Compound 87]	300 to 1000	80 to 300
C[C@H]1CCCN(Cc2cc(Cl)nc(N3Cc4ccc([C@H](C)Cc5nncn5C)cc4C3=O)c2)C1 (single isomer, unassigned) [Compound 90]	< 300	< 80
C[C@H]1CCCN(Cc2cc(Cl)nc(N3Cc4ccc([C@@H](C)Cc5nncn5C)cc4C3=O)c2)C1 (single isomer, unassigned) [Compound 91]	< 300	< 80
CC(NC1CCCC1)c1cc(Cl)nc(N2Cc3ccc(-c4ccc(Cl)cc4-c4nncn4C)cc3C2=O)c1 (single isomer, unassigned) [Compound 104, 6-(4-Chloro-2-(4-methyl-4H-1,2,4-triazol-3-yl)phenyl)-2-(6-chloro-4-(1-(cyclo-pentylamino)ethyl)pyridin-2-yl)isoindolin-1-one]	< 300	< 80
C[C@H](NC1CCCC1)c1cc(Cl)nc(N2Cc3ccc(-c4ccc(Cl)cc4-c4nncn4C)cc3C2=O)c1 (single isomer, unassigned) [Compound 105, 6-(4-Chloro-2-(4-methyl-4H-1,2,4-triazol-3-yl)phenyl)-2-(6-chloro-4-(1-(cyclo-pentylamino)ethyl)pyridin-2-yl)isoindolin-1-one]	< 300	< 80
C[C@@H](NCc1cc(Cl)nc(N2Cc3ccc(-c4ccc(Cl)cc4-c4nncn4C)cc3C2=O)c1)C1CC1 (single isomer, unassigned) [Compound 108, 6-(4-Chloro-2-(4-methyl-4H-1,2,4-triazol-3-yl)phenyl)-2-(6-chloro-4-(((1-cyclo-propylethyl)amino)methyl)pyridin-2-yl)isoindolin-1-one]	< 300	< 80
C[C@H](NCc1cc(Cl)nc(N2Cc3ccc(-c4ccc(Cl)cc4-c4nncn4C)cc3C2=O)c1)C1CC1 (single isomer, unassigned) [Compound 109, 6-(4-Chloro-2-(4-methyl-4H-1,2,4-triazol-3-yl)phenyl)-2-(6-chloro-4-(((1-cyclo-propylethyl)amino)methyl)pyridin-2-yl)isoindolin-1-one]	< 300	< 80
C[C@@H](NCC1CC1)c1cc(Cl)nc(N2Cc3ccc(-c4ccc(Cl)cc4-c4nncn4C)cc3C2=O)c1 (single isomer, unassigned) [Compound 110, 6-(4-Chloro-2-(4-methyl-4H-1,2,4-triazol-3-yl)phenyl)-2-(6-chloro-4-(1-((cyclo-propylmethyl)amino)ethyl)pyridin-2-yl)isoindolin-1-one]	< 300	< 80
C[C@H](NCC1CC1)c1cc(Cl)nc(N2Cc3ccc(-c4ccc(Cl)cc4-c4nncn4C)cc3C2=O)c1 (single isomer, unassigned) [Compound 111, 6-(4-Chloro-2-(4-methyl-4H-1,2,4-triazol-3-yl)phenyl)-2-(6-chloro-4-(1-((cyclo-propylmethyl)amino)ethyl)pyridin-2-yl)isoindolin-1-one]	< 300	< 80
Cn1cnnc1-c1cc(Cl)ccc1-c1ccc2c(c1)C(=O)N(c1cc(CNC[C@@H]3CCCO3)cc(Cl)n1)C2 (single isomer, unassigned) [Compound 123, 6-(4-Chloro-2-(4-methyl-4H-1,2,4-triazol-3-yl)phenyl)-2-(6-chloro-4-((((tetra-hydrofuran-2-yl)methyl)amino)methyl)pyridin-2-yl)isoindolin-1-one]	300 to 1000	< 80
Cn1cnnc1-c1cc(Cl)ccc1-c1ccc2c(c1)C(=O)N(c1cc(CNC[C@H]3CCCO3)cc(Cl)n1)C2 (single isomer, unassigned) [Compound 124, 6-(4-Chloro-2-(4-methyl-4H-1,2,4-triazol-3-yl)phenyl)-2-(6-chloro-4-((((tetra-hydrofuran-2-yl)methyl)amino)methyl)pyridin-2-yl)isoindolin-1-one]	< 300	< 80
Cc1cc([C@H](C)NC2CCCC2)cc(N2Cc3ccc(-c4ccc(Cl)cc4-c4nncn4C)cc3C2=O)n1 (single isomer, unassigned) [Compound 125, 6-(4-Chloro-2-(4-methyl-4H-1,2,4-triazol-3-yl)phenyl)-2-(4-(1-(cyclopentyl-amino)ethyl)-6-methylpyridin-2-yl)isoindolin-1-one]	< 300	< 80
Cc1cc([C@@H](C)NC2CCCC2)cc(N2Cc3ccc(-c4ccc(Cl)cc4-c4nncn4C)cc3C2=O)n1 (single isomer, unassigned) [Compound 126, 6-(4-Chloro-2-(4-methyl-4H-1,2,4-triazol-3-yl)phenyl)-2-(4-(1-(cyclopentyl-amino)ethyl)-6-methylpyridin-2-yl)isoindolin-1-one]	< 300	< 80
C[C@@H](Cc1nncn1C)c1ccc2c(c1)C(=O)N(c1cc(CNCC3CC3)cc(Cl)n1)C2 (single isomer, unassigned) [Compound 160]	300 to 1000	< 80
C[C@H](Cc1nncn1C)c1ccc2c(c1)C(=O)N(c1cc(CNCC3CC3)cc(Cl)n1)C2 (single isomer, unassigned) [Compound 161]	300 to 1000	< 80
C[C@@H](Cc1nncn1C)c1ccc2c(c1)C(=O)N(c1cc(CNCCC(F)(F)F)cc(Cl)n1)C2 (single isomer, unassigned) [Compound 163]	300 to 1000	< 80
C[C@H](Cc1nncn1C)c1ccc2c(c1)C(=O)N(c1cc(CNCCC(F)(F)F)cc(Cl)n1)C2 (single isomer, unassigned) [Compound 164]	1000 to 10000	< 80
C[C@@H](NCC1CC1)c1cc(Cl)nc(N2Cc3ccc(C4(Cc5nncn5C)COC4)cc3C2=O)c1 (single isomer, unassigned) [Compound 166]	< 300	< 80
C[C@H](NCC1CC1)c1cc(Cl)nc(N2Cc3ccc(C4(Cc5nncn5C)COC4)cc3C2=O)c1 (single isomer, unassigned) [Compound 167]	< 300	< 80
C[C@H](Cc1nncn1C)c1ccc2c(c1)C(=O)N(c1cc(CNCC3CCC3)cc(Cl)n1)C2 (single isomer, unassigned) [Compound 170]	< 300	< 80
C[C@@H](Cc1nncn1C)c1ccc2c(c1)C(=O)N(c1cc(CNCC3CCC3)cc(Cl)n1)C2 (single isomer, unassigned) [Compound 171]	< 300	< 80
C[C@H]1CCCN(Cc2cc(Cl)nc(N3Cc4ccc([C@]5(Cc6nncn6C)C[C@@H](C#N)C5)cc4C3=O)c2)C1 (single isomer, unassigned) [Compound 179]	< 300	< 80
C[C@H]1CCCN(Cc2cc(Cl)nc(N3Cc4ccc([C@H](Cc5nncn5C)C(F)(F)F)cc4C3=O)c2)C1 (single isomer, unassigned) [Compound 181]	300 to 1000	< 80
Cn1cnnc1CC1(c2ccc3c(c2)C(=O)N(c2cc(CNC[C@H]4CCCO4)cc(Cl)n2)C3)COC1 (single isomer, unassigned) [Compound 195]	1000 to 10000	< 80
Cn1cnnc1CC1(c2ccc3c(c2)C(=O)N(c2cc(CNC[C@@H]4CCCO4)cc(Cl)n2)C3)COC1 (single isomer, unassigned) [Compound 196]	< 300	< 80
CC(NCC1CC1(F)F)c1cc(Cl)nc(N2Cc3ccc(C4(Cc5nncn5C)COC4)cc3C2=O)c1 (single isomer, unassigned) [Compound 206, 2-(6-Chloro-4-(1-(((2,2-difluorocyclopropyl)methyl)amino)ethyl)pyridin-2-yl)-6-(3-((4-methyl-4H-1,2,4-triazol-3-yl)methyl)oxetan-3-yl)isoindolin-1-one]	< 300	< 80
CC(NCC1CCC1)c1cc(Cl)nc(N2Cc3ccc(C4(Cc5nncn5C)COC4)cc3C2=O)c1 (single isomer, unassigned) [Compound 213, 2-(6-Chloro-4-(1-((cyclobutylmethyl)amino)ethyl)pyridin-2-yl)-6-(3-((4-methyl-4H-1,2,4-triazol-3-yl)methyl)oxetan-3-yl)isoindolin-1-one]	< 300	< 80
C[C@H](NCc1cscn1)c1cc(Cl)nc(N2Cc3ccc(C4(Cc5nncn5C)COC4)cc3C2=O)c1 (single isomer, unassigned) [Compound 218]	300 to 1000	< 80
CC1CCC(C)N(Cc2cc(N3Cc4ccc(C5(Cc6nncn6C)COC5)cc4C3=O)nc(C(F)(F)F)c2)C1 (centres unmarked) [Compound 93, 2-(4-((2,5-Dimethylpiperidin-1-yl)methyl)-6-(trifluoromethyl)pyridin-2-yl)-6-(3-((4-methyl-4H-1,2,4-triazol-3-yl)methyl)oxetan-3-yl)isoindolin-1-one]	300 to 1000	
